Measurements published in PubChem BioAssay AID624026 (Broad Institute, 2012).
Several values for one entry are separate records, joined by “and”; a condition that tells them apart may be missing. Identical values can stand only once. Activity calls are given as the source filed them.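 Rule for the calls: active = compounds reducing cell viability with a fitted AC50 at or below twice their top valid dose; inconclusive = flat curve between -70% and -30%, or an unreliable fit; inactive = the rest.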

Tested on: not listed separately
Assay: cell viability loss, ATP luminescence – CellTiter-Glo, 24 h, powder samples, set 7, cytotoxicity control for SR-BI HDL uptake inhibitor project, dose response (AID 624026)
Conditions: ldlA[mSR-BI] CHO cells viability, CellTiter-Glo ATP, 24 h; at 35 µM (top of the series)

Question: For Cc1ccc(OCc2cc(C(=O)N3CCCC(O)C3)no2)cn1 (configuration not stated), which activity change, negative = cytotoxicity is on record?
Answer: -3.58% (inactive)

Question: For C[C@@H]1CN([C@H](C)CO)C(=O)c2cc(NC(=O)C3CCOCC3)ccc2O[C@H]1CN(C)S(=O)(=O)c1ccc(Cl)cc1, which activity change, negative = cytotoxicity is on record?
Answer: -3.51% (inactive)

Question: For C[C@@H]1CN([C@H](C)CO)C(=O)c2cc(NC(=O)C3CCCCC3)ccc2O[C@H]1CN(C)S(=O)(=O)c1cccc(Cl)c1, which activity change, negative = cytotoxicity is on record?
Answer: -12.5% (inactive)

Question: With C[C@@H]1CN([C@H](C)CO[Si](C)(C)C(C)(C)C)C(=O)c2cc(NC(=O)C3CCCCC3)ccc2O[C@H]1CN(C)C(=O)c1ccc(Cl)cc1 as the compound, how does the activity change, negative = cytotoxicity read?
Answer: 1.39% (inactive)

Question: Which activity change, negative = cytotoxicity does the source give for CC(C)NC(=O)Nc1ccc2c(c1)C(=O)N([C@@H](C)CO)C[C@H](C)[C@H](CN(C)S(=O)(=O)c1ccc(Cl)cc1)O2 here?
Answer: 6.98% (inactive)

Question: For C[C@@H]1CN([C@H](C)CO)C(=O)c2cc(NC(=O)C3CCCCC3)ccc2O[C@H]1CN(C)S(=O)(=O)c1ccccc1Cl, which activity change, negative = cytotoxicity is on record?
Answer: 2.46% (inactive)

Question: Which activity change, negative = cytotoxicity does the source give for CC(C)NC(=O)Nc1ccc2c(c1)C(=O)N([C@@H](C)CO)C[C@@H](C)[C@H](CN(C)S(=O)(=O)c1ccc(Cl)cc1)O2 here?
Answer: 0.1% (inactive)

Question: Which activity change, negative = cytotoxicity does the source give for COc1ccc2c(c1)CC(C1(O)C(=O)N(C)c3ccccc31)C2=O (configuration not stated) here?
Answer: -4.38% (inactive)

Question: For C[C@@H]1CN([C@H](C)CO)C(=O)c2cc(NC(=O)C3CCCCC3)ccc2O[C@H]1CN(C)S(=O)(=O)c1ccc(Cl)cc1, which activity change, negative = cytotoxicity is on record?
Answer: 0.365% (inactive)

Question: Which activity change, negative = cytotoxicity does the source give for CC(C)NC(=O)Nc1ccc2c(c1)C(=O)N([C@H](C)CO[Si](C)(C)C(C)(C)C)C[C@@H](C)[C@H](CN(C)S(=O)(=O)c1ccc(Cl)cc1)O2 here?
Answer: 2% (inactive)

Question: Which activity change, negative = cytotoxicity does the source give for CC(C)NC(=O)Nc1ccc2c(c1)C(=O)N([C@H](C)CO)C[C@@H](C)[C@H](CN(C)S(=O)(=O)c1ccc(Cl)cc1)O2 here?
Answer: 10.4% (inactive) and 2.32% (inactive)

Question: For C[C@H](C(=O)NC1CCCC1)N(C(=O)Cn1nnc(-c2ccc3c(c2)OCO3)n1)C1CCCCC1, which activity change, negative = cytotoxicity is on record?
Answer: -3.33% (inactive)

Question: With C[C@@H]1CN([C@H](C)CO)C(=O)c2cc(NC(=O)Cc3cn(C)c4ccccc34)ccc2O[C@H]1CN(C)S(=O)(=O)c1ccc(F)cc1 as the compound, how does the activity change, negative = cytotoxicity read?
Answer: 12.8% (inactive)

Question: For CCOc1cc2c3c(c1)C1(C(=O)N3C(C)(C)CC2C)C(C#N)=C(N)N2C(=C1C#N)Nc1ccccc12 (configuration not stated), which activity change, negative = cytotoxicity is on record?
Answer: -18.2% (inactive)

Question: For CC(C)NC(=O)Nc1ccc2c(c1)C(=O)N([C@H](C)CO)C[C@@H](C)[C@@H](CN(C)S(=O)(=O)c1ccc(Cl)cc1)O2, which activity change, negative = cytotoxicity is on record?
Answer: 4.21% (inactive)

Question: Which activity change, negative = cytotoxicity does the source give for COc1c(NC(=O)C(=O)c2ccc(OCCN3CCOCC3)c3ccccc23)cc(C(C)(C)C)cc1NS(C)(=O)=O here?
Answer: -29.9% (inactive)

Question: Which activity change, negative = cytotoxicity does the source give for CC(C)NC(=O)Nc1cccc2c1O[C@@H](CN(C)S(=O)(=O)c1ccc(Cl)cc1)[C@H](C)CN([C@H](C)CO)C2=O here?
Answer: 3.81% (inactive)

Question: For COCC(=O)N1CCc2cc(-c3csc(NC(=O)c4cc(OC)cc(OC)c4)n3)ccc21, which activity change, negative = cytotoxicity is on record?
Answer: 3.29% (inactive)

Question: Which activity change, negative = cytotoxicity does the source give for CC(C)NC(=O)Nc1ccc2c(c1)C(=O)N([C@H](C)CO)C[C@H](C)[C@H](CN(C)S(=O)(=O)c1ccc(Cl)cc1)O2 here?
Answer: 1.21% (inactive)

Question: For C[C@@H]1CN([C@H](C)CO)C(=O)c2cc(NC(=O)C3CCCCC3)ccc2O[C@H]1CN(C)C(=O)c1ccc(Cl)cc1, which activity change, negative = cytotoxicity is on record?
Answer: -8.49% (inactive)

Question: With CC(C)NC(=O)Nc1ccc2c(c1)CC(=O)N([C@H](C)CO)C[C@@H](C)[C@H](CN(C)S(=O)(=O)c1ccc(Cl)cc1)O2 as the compound, how does the activity change, negative = cytotoxicity read?
Answer: 8.33% (inactive)

Question: With CC(C)NC(=O)Nc1ccc2c(c1)C(=O)N([C@@H](C)CO)C[C@@H](C)[C@@H](CN(C)S(=O)(=O)c1ccc(Cl)cc1)O2 as the compound, how does the activity change, negative = cytotoxicity read?
Answer: 12.2% (inactive)

Question: Which activity change, negative = cytotoxicity does the source give for O=C(O)CC(C(=O)Nc1cccc(C(F)(F)F)c1)C1CCCO1 (configuration not stated) here?
Answer: 1.15% (inactive)

Question: Which activity change, negative = cytotoxicity does the source give for CC(C)CN(C(=O)COC(=O)C12CC3CC(CC(O)(C3)C1)C2)C1CCS(=O)(=O)C1 (configuration not stated) here?
Answer: -5.18% (inactive)

Question: With Cc1noc(C)c1S(=O)(=O)Nc1ccc2c(c1)C(=O)N([C@H](C)CO)C[C@@H](C)[C@H](CN(C)S(=O)(=O)c1ccc(Cl)cc1)O2 as the compound, how does the activity change, negative = cytotoxicity read?
Answer: 2.07% (inactive)

Question: For O=C1C2C3C=CC(C3)C2C(=O)N1c1cccc(N2C(=O)C3C4C=CC(C4)C3C2=O)n1 (configuration not stated), which activity change, negative = cytotoxicity is on record?
Answer: -1.42% (inactive)

Question: With CNC[C@@H]1Oc2ccc(NC(=O)NC(C)C)cc2C(=O)N([C@H](C)CO[Si](C)(C)C(C)(C)C)C[C@H]1C as the compound, how does the activity change, negative = cytotoxicity read?
Answer: 0.137% (inactive)

Question: With C[C@@H]1CN([C@H](C)CO)C(=O)c2cc(NC(=O)Cc3cn(C)c4ccccc34)ccc2O[C@H]1CN(C)S(=O)(=O)c1ccc(Cl)cc1 as the compound, how does the activity change, negative = cytotoxicity read?
Answer: -1.59% (inactive)

Tested on: ldlA[mSR-BI] CHO cells viability, CellTiter-Glo ATP, 24 h
Assay: as above
Conditions: not given

Question: Which AC50 does the source give for C=CCOC(=O)N(C)C[C@@H]1Oc2ccc(N)cc2C(=O)N([C@H](C)CO[Si](C)(C)C(C)(C)C)C[C@H]1C here?
Answer: > 70 µM (inactive)

Question: For C=CCOC(=O)N(C)C[C@@H]1Oc2ccc(NC(=O)OCC3c4ccccc4-c4ccccc43)cc2C(=O)N([C@H](C)CO)C[C@H]1C, which AC50 is on record?
Answer: > 70 µM (inactive)

Question: With CC(C)NC(=O)Nc1ccc2c(c1)C(=O)N([C@H](C)CO)C[C@@H](C)[C@H](CN(C)S(=O)(=O)c1ccc(Cl)cc1)O2 as the compound, how does the AC50 read?
Answer: > 70 µM (inactive)

Question: Which AC50 does the source give for C=CCOC(=O)N(C)C[C@@H]1Oc2ccc(NC(=O)NC(C)C)cc2C(=O)N([C@H](C)CO[Si](C)(C)C(C)(C)C)C[C@H]1C here?
Answer: 21.6 µM
